Results published in patent publication US10125139B2, “Pesticidally active polycyclic derivatives with sulfur substituted five-membered ring heterocycles” (Syngenta Participations AG, priority 2015, dated 2018).

Assays:
[1] = tested on: Diabrotica balteata (Corn Root Worm); assay: Example B2: Diabrotica balteata, sprayed maize sprouts, L2 larvae; type: in vivo; details: for percent effect (mortality or growth inhibition) at 200 ppm: Diabrotica balteata, 96 h, application rate of 200 ppm, 4 days after infestation, L2 larvae, read-out: effect in at least one of the two categories (mortality or growth inhibition)
Procedure: Example B2: Diabrotica balteata (Corn Root Worm)
Maize sprouts placed onto an agar layer in 24-well microtiter plates were treated with aqueous test solutions prepared from 10,000 ppm DMSO stock solutions by spraying. After drying, the plates were infested with L2 larvae (6 to 10 per well). The samples were assessed for mortality and growth inhibition in comparison to untreated samples 4 days after infestation. The following compounds gave an effect of at least 80% in at least one of the two categories (mortality or growth inhibition) at an application rate of 200 ppm:
(§1) Insecticidal action against Diabrotica balteata (Corn root worm), Plutella xylostella (Diamond black moth), and Spodoptera littoralis (Egyptian cotton leaf worm). The tests were carried out as described in biological examples B2, B8 and B9, respectively, with the larval feeding/contact activity (mortality only) being reported as Breakpoint (BP80) values in parts per million (i.e. the lowest concentration which gives 80% larval mortality).

[2] = tested on: Spodoptera littoralis (Egyptian Cotton Leaf Worm); assay: Example B10: Spodoptera littoralis systemic activity, lettuce grown on treated agar; type: in vivo; details: 144 h, test rate of 12.5 ppm, 6 days after infestation, read-out: effect in at least one of the three categories (mortality, anti-feeding, or growth inhibition)
Text: Example B10: Spodoptera littoralis (Egyptian Cotton Leaf Worm) Systemic Activity
Test compounds were applied by pipette from 10,000 ppm DMSO stock solutions into 24-well plates and mixed with agar. Lettuce seeds were placed onto the agar and the multi well plate was closed by another plate which contained also agar. After 7 days the compound was absorbed by the roots and the lettuce grew into the lid plate. The lettuce leaves were then cut off into the lid plate. Spodoptera eggs were pipetted through a plastic stencil onto a humid gel blotting paper and the lid plate was closed with it. The samples were assessed for mortality, anti-feedant effect and growth inhibition in comparison to untreated samples 6 days after infestation. The following compounds gave an effect of at least 80% in at least one of the three categories (mortality, anti-feeding, or growth inhibition) at a test rate of 12.5 ppm: […]

[3] = tested on: Spodoptera littoralis (Egyptian Cotton Leaf Worm); assay: Example B9: Spodoptera littoralis, cotton leaf discs, L1 larvae; type: in vivo; details: for percent control (mortality, anti-feedant effect or growth inhibition) at 200 ppm: Spodoptera littoralis, foliar, 72 h, application rate of 200 ppm, 3 days after infestation, L1 larvae
Procedure: Example B9: Spodoptera littoralis (Egyptian Cotton Leaf Worm)
Cotton leaf discs were placed onto agar in 24-well microtiter plates and sprayed with aqueous test solutions prepared from 10,000 ppm DMSO stock solutions. After drying the leaf discs were infested with five L1 larvae. The samples were assessed for mortality, anti-feeding effect, and growth inhibition in comparison to untreated samples 3 days after infestation. Control of Spodoptera littoralis by a test sample is given when at least one of the categories mortality, anti-feedant effect, and growth inhibition is higher than the untreated sample.
as §1

[4] = tested on: Plutella xylostella (Diamond Back Moth); assay: Example B8: Plutella xylostella, artificial diet, L2 larvae; type: in vivo; details: for percent effect (mortality or growth inhibition) at 200 ppm: Plutella xylostella, 120 h, application rate of 200 ppm, 5 days after infestation, L2 larvae, read-out: effect in at least one of the two categories (mortality or growth inhibition)
Procedure: Example B8: Plutella xylostella (Diamond Back Moth)
24-well microtiter plates with artificial diet were treated with aqueous test solutions prepared from 10,000 ppm DMSO stock solutions by pipetting. After drying, the plates were infested with L2 larvae (10 to 15 per well). The samples were assessed for mortality and growth inhibition in comparison to untreated samples 5 days after infestation. The following compounds gave an effect of at least 80% in at least one of the two categories (mortality or growth inhibition) at an application rate of 200 ppm:
as §1

[5] = tested on: Myzus persicae (Green Peach Aphid); assay: Example B5: Myzus persicae feeding/contact activity, sunflower leaf discs; type: in vivo; details: foliar, 144 h, application rate of 200 ppm, 6 days after infestation
Procedure: Example B5: Myzus persicae (Green Peach Aphid): Feeding/Contact Activity
Sunflower leaf discs were placed onto agar in a 24-well microtiter plate and sprayed with aqueous test solutions prepared from 10,000 ppm DMSO stock solutions. After drying, the leaf discs were infested with an aphid population of mixed ages. The samples were assessed for mortality 6 days after infestation.

[6] = tested on: Euschistus heros (Neotropical Brown Stink Bug); assay: Example B3: Euschistus heros, sprayed soybean leaves, N2 nymphs; type: in vivo; details: 120 h, application rate of 200 ppm, 5 days after infestation, read-out: effect in at least one of the two categories (mortality or growth inhibition)
Procedure: Example B3: Euschistus heros (Neotropical Brown Stink Bug)
Soybean leaves on agar in 24-well microtiter plates were sprayed with aqueous test solutions prepared from 10,000 ppm DMSO stock solutions. After drying the leaves were infested with N2 nymphs. The samples were assessed for mortality and growth inhibition in comparison to untreated samples 5 days after infestation. The following compounds gave an effect of at least 80% in at least one of the two categories (mortality or growth inhibition) at an application rate of 200 ppm: […]

[7] = tested on: Bemisia tabaci (Cotton White Fly); assay: Example B1: Bemisia tabaci feeding/contact activity, cotton leaf discs; type: in vivo; details: foliar, 144 h, application rate of 200 ppm, 6 days after incubation, adult white flies
Procedure: Example B1: Bemisia tabaci (Cotton White Fly): Feeding/Contact Activity
Cotton leaf discs were placed on agar in 24-well microtiter plates and sprayed with aqueous test solutions prepared from 10,000 ppm DMSO stock solutions. After drying the leaf discs were infested with adult white flies. The samples were checked for mortality 6 days after incubation.

[8] = tested on: Frankliniella occidentalis (Western Flower thrips); assay: Example B4: Frankliniella occidentalis feeding/contact activity, sunflower leaf discs; type: in vivo; details: foliar, 168 h, application rate of 200 ppm, 7 days after infestation, population of mixed ages
Procedure: Example B4: Frankliniella occidentalis (Western Flower thrips): Feeding/Contact Activity
(§2) Sunflower leaf discs were placed on agar in 24-well microtiter plates and sprayed with aqueous test solutions prepared from 10,000 DMSO stock solutions. After drying the leaf discs were infested with a Frankliniella population of mixed ages. The samples were assessed for mortality 7 days after infestation.

[9] = tested on: Thrips tabaci (Onion thrips); assay: Example B12: Thrips tabaci feeding/contact activity, sunflower leaf discs; type: in vivo; details: foliar, 144 h, application rate of 200 ppm, 6 days after infestation
Procedure: Example B12: Thrips tabaci (Onion thrips) Feeding/Contact Activity
as §2, with “10,000 ppm” for “10,000”, “thrips” for “Frankliniella”, “6” for “7”

[10] = tested on: Myzus persicae (Green Peach Aphid); assay: Example B6: Myzus persicae systemic activity, pea seedling roots in test solution; type: in vivo; details: 144 h, test rate of 24 ppm, 6 days after placing seedlings into test solutions
Procedure: Example B6: Myzus persicae (Green Peach Aphid). Systemic Activity
Roots of pea seedlings infested with an aphid population of mixed ages were placed directly into aqueous test solutions prepared from 10,000 DMSO stock solutions. The samples were assessed for mortality 6 days after placing seedlings into test solutions.

Row | SMILES | melting point [°C] | percent effect (mortality or growth inhibition) at 200 ppm [1] [%] | percent effect (mortality, anti-feeding or growth inhibition) at 12.5 ppm [2] [%] | percent control (mortality, anti-feedant effect or growth inhibition) at 200 ppm [3] [%] | percent effect (mortality or growth inhibition) at 200 ppm [4] [%] | mortality at 200 ppm [5] [%] | percent effect (mortality or growth inhibition) at 200 ppm [6] [%] | mortality at 200 ppm [7] [%] | mortality at 200 ppm [8] [%] | mortality at 200 ppm [9] [%] | further results
1 | CCS(=O)(=O)c1ncsc1-c1nc2cc(C(F)(F)F)ncc2n1C [Example I-2] | 169 to 171 |  |  |  |  |  |  |  |  |  | 
2 | CCS(=O)(=O)c1nc(Br)sc1-c1nc2cc(C(F)(F)F)ncc2n1C [Example I-4, 2-bromo-4-ethylsulfonyl-5-[3-methyl-6-(trifluoromethyl)imidazo[4,5-c]pyridin-2-yl]thiazole] | 248 to 250 |  |  |  |  |  |  |  |  |  | 
3 | CCS(=O)(=O)c1cc(I)sc1-c1nc2cc(C(F)(F)F)nnc2n1C [Example I-6, 6-(3-ethylsulfonyl-5-iodo-2-thienyl)-7-methyl-3-(trifluoromethyl)imidazo[4,5-c]pyridazine] |  | ≥ 80 | ≥ 80 | ≥ 80 | ≥ 80 |  |  |  |  |  | 
4 | CCSc1cc(I)sc1-c1nc2cc(C(F)(F)F)ncc2n1C [Example I-12, 2-(3-ethylsulfanyl-5-iodo-2-thienyl)-3-methyl-6-(trifluoromethyl)imidazo[4,5-c]pyridine] | 61 to 63 |  |  |  |  |  |  |  |  |  | 
5 | CCS(=O)(=O)c1cc(-c2ccc(C(F)(F)F)cc2)sc1-c1nc2cc(C(F)(F)F)ncc2n1C [Example P-1, 2-[3-ethylsulfonyl-5-[4-(trifluoromethyl)phenyl]-2-thienyl]-3-methyl-6-(trifluoromethyl)imidazo[4,5-c]pyridine] |  | ≥ 80 | ≥ 80 | ≥ 80 | ≥ 80 | ≥ 80 | ≥ 80 |  |  |  | BP80 (Breakpoint, lowest concentration which gives 80% larval mortality) Diabrotica balteata ([1]; larval feeding/contact activity, mortality only, test as in B2): 0.8 ppm; BP80 (Breakpoint, lowest concentration which gives 80% larval mortality) Spodoptera littoralis ([3]; larval feeding/contact activity, mortality only, test as in B9): 0.8 ppm; BP80 (Breakpoint, lowest concentration which gives 80% larval mortality) Plutella xylostella ([4]; larval feeding/contact activity, mortality only, test as in B8): 0.8 ppm
6 | CCS(=O)(=O)c1nc(-c2ccc(Cl)cc2)sc1-c1nc2cc(C(F)(F)F)ncc2n1C [Example P-4, 2-(4-chlorophenyl)-4-ethylsulfonyl-5-[3-methyl-6-(trifluoromethyl)imidazo[4,5-c]pyridin-2-yl]thiazole] |  | ≥ 80 | ≥ 80 | ≥ 80 | ≥ 80 | ≥ 80 | ≥ 80 | ≥ 80 | ≥ 80 |  | 
7 | CCS(=O)(=O)c1cc(-c2ccc(Cl)cc2)sc1-c1nc2cc(C(F)(F)F)ncc2n1C [Example P-5, 2-[5-(4-chlorophenyl)-3-ethylsulfonyl-2-thienyl]-3-methyl-6-(trifluoromethyl)imidazo[4,5-c]pyridine] |  | ≥ 80 | ≥ 80 | ≥ 80 | ≥ 80 | ≥ 80 | ≥ 80 | ≥ 80 | ≥ 80 | ≥ 80 | 
8 | CCS(=O)(=O)c1nc(-c2ncccn2)sc1-c1nc2cc(C(F)(F)F)ncc2n1C [Example P-9, 4-ethylsulfonyl-5-[3-methyl-6-(trifluoromethyl)imidazo[4,5-c]pyridin-2-yl]-2-pyrimidin-2-yl-thiazole] |  |  |  |  |  |  |  |  |  |  | mortality at 24 ppm [10]: ≥ 80%
9 | CCS(=O)(=O)c1nc(-n2ccc(C(F)(F)F)n2)sc1-c1nc2cc(C(F)(F)F)ncc2n1C [Example P-10, 4-ethylsulfonyl-5-[3-methyl-6-(trifluoromethyl)imidazo[4,5-c]pyridin-2-yl]-2-[3-(trifluoromethyl)pyrazol-1-yl]thiazole] |  | ≥ 80 | ≥ 80 | ≥ 80 |  | ≥ 80 | ≥ 80 | ≥ 80 | ≥ 80 | ≥ 80 | 
10 | CCSc1nc(-c2ncccn2)sc1-c1nc2cc(C(F)(F)F)ncc2n1C [Example P-11] | 230 to 232 |  |  |  |  |  |  |  |  |  | 
11 | CCS(=O)(=O)c1cc(-c2ccc(Cl)cc2)sc1-c1nc2cc(SC(F)(F)F)ncc2n1C [Example P-15] |  | ≥ 80 | ≥ 80 | ≥ 80 | ≥ 80 | ≥ 80 | ≥ 80 | ≥ 80 | ≥ 80 | ≥ 80 | 
12 | CCSc1cc(-c2ccc(Cl)cc2)sc1-c1nc2cc(C(F)(F)F)nnc2n1C [Example P-17, 6-[5-(4-chlorophenyl)-3-ethylsulfanyl-2-thienyl]-7-methyl-3-(trifluoromethyl)imidazo[4,5-c]pyridazine] | 205 to 207 |  |  |  |  |  |  |  |  |  | 
13 | CCS(=O)(=O)c1cc(-c2ccc(Cl)cc2)sc1-c1nc2cc(C(F)(F)F)nnc2n1C [Example P-18, 6-[5-(4-chlorophenyl)-3-ethylsulfonyl-2-thienyl]-7-methyl-3-(trifluoromethyl)imidazo[4,5-c]pyridazine] |  | ≥ 80 | ≥ 80 | ≥ 80 | ≥ 80 | ≥ 80 | ≥ 80 | ≥ 80 | ≥ 80 | ≥ 80 | 
